Our source for the IC50 values is US7524485B2, “Skin lightening agents, compositions and methods” (Unilever Home & Personal Care, USA, Division of Conopco, …, priority 2002, dated 2009).

Structures are written as SMILES. pIC50: −log10 of the molar value. Like-named read-outs stand apart in the source and are kept apart here.

The assay concerns the target T1, mushroom tyrosinase.
T1 construct: mushroom tyrosinase (Sigma T-7755)
The assay can be described thus: Mushroom Tyrosinase Assay. To be noted: L-DOPA substrate, pH 7.0, absorbency 475 nm, vs ethanol control. It is filed as biochemical. How it is done: Mushroom tyrosinase inhibition is indicative of reduction in melanin synthesis, thereby showing skin lightening effect.
Into each well of a 96-well plate, 150 microliters of phosphate buffer (100 mM, pH 7.0), 10 microliters of L-DOPA (L-3, 4-Dihydroxyphenylalanine, 10 mM), and 20 microliters of skin lightening agent (dissolved in ethanol, which is the control) were added. Following an initial measurement of background absorbency at 475-nm, 20 microliters of mushroom tyrosinase (Sigma T-7755; 6050 units/ml) was added and incubated at room temperature.
Absorbency is read at 475-nm over the following time points: 0, 2, 4, and 6.5 minutes. The data is plotted as 475-nm absorbency vs. time (minutes) and the slope of the line is calculated (ΔAbs 475 nm/min).

The mark [1] stands for this setting: Experiment 1, read-out: IC50 (Concentration) Experiment 1.
Setting [2] is: Experiment 2, read-out: IC50 (Concentration) Experiment 2.

In the case of `Oc1ccc(C2SCCS2)c(O)c1` [5-member Di-Thianyl Resorcinol, 4-[2′-(1′,3′-dithiacyclopenty)]-1,3-dihydroxybenzene], the pIC50 under setting [1] was 5.42 and the pIC50 under setting [2] was 5.60.
Turning to `CCc1ccc(O)cc1O` [4-Ethyl Resorcinol, reference compound], the pIC50 was 6.26 under setting [1] and 6.40 under setting [2].
With `Oc1ccc(C2SCCCS2)c(O)c1` [6-member Di-Thianyl Resorcinol, 4-[2′-(1′,3′-dithiacyclohexy)]-1,3-dihydroxybenzene], the pIC50 is, setting by setting: under setting [1], 5.77; under setting [2], 6.00.
